{
  "source": "patent EP4375289A1",
  "about": "“PEPTIDE WITH ANTIMICROBIAL ACTIVITY” (Freie Universität Berlin, priority 2022, dated 2024)",
  "key": {"[1]": {"test": "Peptide-induced membrane disrupting activity", "assay_type": "biochemical", "settings": "artificial phospholipid membranes at physiological pH", "experimental": "Peptide-induced membrane disrupting activity was determined before by calculation of EC50 values and an increase in bioactivity with a growing degree of side chain fluorination was found."}, "red blood cells": {"test_system": "red blood cells", "assay_type": "cell-based", "settings": "data not shown", "experimental": "Hemolysis assays were performed on red blood cells and cytotoxicity tests with two cell lines (HeLa, A549). No potent hemolytic activity for all peptides up to a concentration of 250 µg/mL, corresponding to concentrations of 140 µM (AbuR14) - 125 µM (TfeGlyR14) was determined (data not shown)."}, "E. coli": {"test_system": "E. coli", "test": "Minimum inhibitory concentration (MIC) assay, CLSI broth dilution", "assay_type": "cell-based", "settings": "E. coli ATCC 25922", "experimental": "(§1) Minimum inhibitory concentrations (MIC) assays were performed according to Clinical and Laboratory Standards Institute (CLSI) recommendations in cation-adjusted Mueller-Hinton broth (Mueller-Hinton II) broth in flat-bottomed, 96-well plates (Corning, Wiesbaden, Germany) with an inoculum of 10^5 bacteria/well and incubated at 37°C overnight. The optical density of the cultures was determined at 460 and 600 nm immediately after inoculation and after overnight incubation using a BioTek Synergy HT plate reader. Controls included bacterial strains, medium alone and wells without peptide additions. A serial dilution of each peptide was done before bacteria addition. A serial dilution of media including the respective peptide solvent without peptides supplement (Dimethylsulfoxid; Sigma-Aldrich, Taufkirchen, Germany or 1 x phosphate buffered saline; Biochrom, Berlin, Germany) functions as control to ensure the solvent influence on growth."}, "E. faecalis": {"test_system": "E. faecalis", "test": "Minimum inhibitory concentration (MIC) assay, CLSI broth dilution", "assay_type": "cell-based", "settings": "E. faecalis ATCC 29212", "experimental": "as §1"}, "K. pneumoniae": {"test_system": "K. pneumoniae", "test": "Minimum inhibitory concentration (MIC) assay, CLSI broth dilution", "assay_type": "cell-based", "settings": "K. pneumoniae ATCC 700603", "experimental": "as §1"}, "P. aeruginosa": {"test_system": "P. aeruginosa", "test": "Minimum inhibitory concentration (MIC) assay, CLSI broth dilution", "assay_type": "cell-based", "settings": "P. aeruginosa ATCC 27853", "experimental": "as §1"}, "S. Typhimurium": {"test_system": "S. Typhimurium", "test": "Minimum inhibitory concentration (MIC) assay, CLSI broth dilution", "assay_type": "cell-based", "settings": "S. Typhimurium ATCC 14028", "experimental": "as §1"}, "S. aureus": {"test_system": "S. aureus", "test": "Minimum inhibitory concentration (MIC) assay, CLSI broth dilution", "assay_type": "cell-based", "settings": "S. aureus ATCC 29213", "experimental": "as §1"}, "C. albicans": {"test_system": "C. albicans", "test": "Minimum inhibitory concentration (MIC) assay, CLSI broth dilution", "assay_type": "cell-based", "settings": "C. albicans IMT 9655"}},
  "note": "pEC50: −log10 of the molar value. Square brackets hold non-standard residues; d marks the D form. Peptide text beside a SMILES is read from it. 2Abz = Nc1ccccc1C(=O)O; Abu = CC[C@H](N)C(=O)O",
  "data": [
    {"compound": "CC(C)C[C@@H](NC(=O)[C@H](CCCNC(=N)N)NC(=O)[C@H](Cc1c[nH]c2ccccc12)NC(=O)[C@H](CCCNC(=N)N)NC(=O)[C@@H](NC(=O)[C@@H](N)CCCNC(=N)N)C(C)C)C(=O)N[C@H](Cc1ccccc1)C(=O)Nc1ccccc1C(=O)N[C@H](C)C(=O)N[C@@H](CCCNC(=N)N)C(=O)N[C@@H](Cc1c[nH]c2ccccc12)C(=O)N[C@@H](CCCNC(=N)N)C(=O)N[C@H](C(=O)N[C@@H](CCCNC(=N)N)C(=O)O)C(C)C", "note": "[SAJO-2, H-R-Val-R-Trp-R-[I-f-[2]Abz-a]-R-Trp-R-Val-R-OH, reference compound] (H-RVRWR[dL][dF][2Abz][dA]RWRVR-OH; N-terminus and C-terminus assumed)", "values": [
      {"measurement": "pEC50", "setting": "[1]", "result": 4.15},
      {"measurement": "peptide-induced hemolysis at minimum concentrations", "setting": "red blood cells; red blood cells", "result": "≥ 0.5", "unit": "mg/mL"}
    ]},
    {"compound": "CC[C@H](NC(=O)[C@H](CCCNC(=N)N)NC(=O)[C@H](CC)NC(=O)[C@H](CCCNC(=N)N)NC(=O)[C@@H](C)NC(=O)c1ccccc1NC(=O)[C@@H](Cc1ccccc1)NC(=O)[C@@H](CC(C)C)NC(=O)[C@H](CCCNC(=N)N)NC(=O)[C@H](CC)NC(=O)[C@H](CCCNC(=N)N)NC(=O)[C@H](CC)NC(=O)[C@H](CCCNC(=N)N)NC(C)=O)C(=O)N[C@@H](CCCNC(=N)N)C(N)=O", "note": "[AbuR14, Ac-R-Abu-R-Abu-R-[I-f-[2]Abz-a]-R-Abu-R-Abu-R-NH2] (Ac-R[Abu]R[Abu]R[dL][dF][2Abz][dA]R[Abu]R[Abu]R-NH2)", "values": [
      {"measurement": "1*MIC", "setting": "E. coli", "result": 128, "unit": "µg/mL"},
      {"measurement": "1*MIC", "setting": "E. faecalis", "result": 512, "unit": "µg/mL"},
      {"measurement": "1*MIC", "setting": "K. pneumoniae", "result": "≥1024", "unit": "µg/mL"},
      {"measurement": "1*MIC", "setting": "P. aeruginosa", "result": "≥1024", "unit": "µg/mL"},
      {"measurement": "1*MIC", "setting": "S. Typhimurium", "result": 256, "unit": "µg/mL"},
      {"measurement": "1*MIC", "setting": "S. aureus", "result": "≥1024", "unit": "µg/mL"},
      {"measurement": "1*MIC", "setting": "C. albicans", "result": 512, "unit": "µg/mL"},
      {"measurement": "pEC50", "setting": "[1]", "result": 3.83},
      {"measurement": "No potent hemolytic activity up to a concentration (corresponding concentration)", "setting": "red blood cells; corresponding to 250 µg/mL", "result": "> 140", "unit": "µM"}
    ]}
  ]
}
